Test results reported in US12246007B2, “Liquid bendamustine pharmaceutical compositions” (HOSPIRA AUSTRALIA PTY LTD, priority 2018, dated 2025).
Counter-ions that a name gives are not always drawn. Like-named read-outs stand apart in the source and are kept apart here.

Test: Solubility of bendamustine HCl in organic solvents (T0 assay after overnight rolling and filtration)
Format: physicochemical
Experimental: An initial study was performed to assess bendamustine HCl solubility and brief stability in various organic solvents. Amounts of approximately 415.4 mg bendamustine HCl API (active pharmaceutical ingredient) were weighed into 4 mL amber glass vials. 2 mL of each indicated test solvent was added to two of each of the vials. One of each set of two vials containing the same solvent was placed on a sample roller at 2-8° C., and the other vial in each set was placed on a sample roller at laboratory temperature overnight. The following day, the solution from each vial was filtered through a Pall, 0.2 μm Fluorodyne II (Hydrophilic modified PVDF) syringe filter into a fresh 4 mL amber glass vial.

## Cn1c(CCCC(=O)O)nc2cc(N(CCCl)CCCl)ccc21 [Bendamustine HCl, 1H-benzimidazole-2-butanoic acid, 5-[bis(2-chloroethyl)amino]-1-methyl, monohydrochloride]
2 °C, organic solvent or mixture, thermodynamic from solid, 1-methyl-2-pyrrolidinone, 2-8° C., read-out: Solubility
  solubility: 181 mg/mL
2 °C, organic solvent or mixture, thermodynamic from solid, Absolute Ethanol, 2-8° C., read-out: Solubility
  solubility: 52.1 mg/mL
2 °C, organic solvent or mixture, thermodynamic from solid, Benzyl alcohol, 2-8° C., read-out: Solubility
  solubility: 177 mg/mL
2 °C, organic solvent or mixture, thermodynamic from solid, Dimethyl acetamide (EP)-Finar, 2-8° C., read-out: Solubility
  solubility: 180 mg/mL
2 °C, organic solvent or mixture, thermodynamic from solid, Dimethyl acetamide (EP)-Panreac, 2-8° C., read-out: Solubility
  solubility: 182 mg/mL
2 °C, organic solvent or mixture, thermodynamic from solid, Dimethyl acetamide (high purity)-Finar, 2-8° C., read-out: Solubility
  solubility: 178 mg/mL
2 °C, organic solvent or mixture, thermodynamic from solid, Dimethyl sulfoxide, 2-8° C., read-out: Solubility
  solubility: 182 mg/mL
2 °C, organic solvent or mixture, thermodynamic from solid, PEG 300, 2-8° C., read-out: Solubility
  solubility: 60.2 mg/mL
2 °C, organic solvent or mixture, thermodynamic from solid, PEG 400, 2-8° C., read-out: Solubility
  solubility: 32.8 mg/mL
2 °C, organic solvent or mixture, thermodynamic from solid, Propylene glycol (USP)-Croda, 2-8° C., read-out: Solubility
  solubility: 154 mg/mL
2 °C, organic solvent or mixture, thermodynamic from solid, Propylene glycol (USP)-Dow, 2-8° C., read-out: Solubility
  solubility: 154 mg/mL
2 °C, organic solvent or mixture, thermodynamic from solid, Propylene glycol (USP)-Merck, 2-8° C., read-out: Solubility
  solubility: 159 mg/mL
2 °C, organic solvent or mixture, thermodynamic from solid, Propylene glycol, 2-8° C., read-out: bendamustine HCl solubility
  solubility: ~155 mg/mL
Isopropyl alcohol, 2-8° C.
  solubility: 4.5 mg/mL
PEG 300, organic solvent or mixture, thermodynamic from solid, read-out: bendamustine HCl solubility
  solubility: ~60 mg/mL
PEG 400, organic solvent or mixture, thermodynamic from solid, read-out: bendamustine HCl solubility
  solubility: ~30 mg/mL
Propylene glycol (USP)-Croda, 23° C.
  solubility: 170.3 mg/mL
ethanol, organic solvent or mixture, thermodynamic from solid, read-out: bendamustine HCl solubility
  solubility: 50 to 60 mg/mL
Isopropyl alcohol, organic solvent or mixture, thermodynamic from solid, read-out: bendamustine HCl solubility
  solubility: ~5 mg/mL
Organic solvent or mixture, thermodynamic from solid, 1-methyl-2-pyrrolidinone, 23° C., read-out: Solubility
  solubility: 180 mg/mL
Organic solvent or mixture, thermodynamic from solid, 1-methyl-2-pyrrolidinone, both temperatures tested, API completely dissolved, read-out: bendamustine HCl solubility
  solubility: > 180 mg/mL
Organic solvent or mixture, thermodynamic from solid, Absolute Ethanol, 23° C., read-out: Solubility
  solubility: 61.1 mg/mL
Organic solvent or mixture, thermodynamic from solid, Benzyl alcohol, 23° C., read-out: Solubility
  solubility: 174 mg/mL
Organic solvent or mixture, thermodynamic from solid, Benzyl alcohol, both temperatures tested, API completely dissolved, read-out: bendamustine HCl solubility
  solubility: > 180 mg/mL
Organic solvent or mixture, thermodynamic from solid, Dimethyl acetamide (EP)-Finar, 23° C., read-out: Solubility
  solubility: 174 mg/mL
Organic solvent or mixture, thermodynamic from solid, Dimethyl acetamide (EP)-Panreac, 23° C., read-out: Solubility
  solubility: 180 mg/mL
Organic solvent or mixture, thermodynamic from solid, Dimethyl acetamide (high purity)-Finar, 23° C., read-out: Solubility
  solubility: 179 mg/mL
Organic solvent or mixture, thermodynamic from solid, Dimethyl sulfoxide, 23° C., read-out: Solubility
  solubility: 181 mg/mL
Organic solvent or mixture, thermodynamic from solid, Isopropyl alcohol, 23° C., read-out: Solubility
  solubility: 6.7 mg/mL
Organic solvent or mixture, thermodynamic from solid, PEG 300, 23° C., read-out: Solubility
  solubility: 64.5 mg/mL
Organic solvent or mixture, thermodynamic from solid, PEG 400, 23° C., read-out: Solubility
  solubility: 34.4 mg/mL
Organic solvent or mixture, thermodynamic from solid, Propylene glycol (USP)-Dow, 23° C., read-out: Solubility
  solubility: 166 mg/mL
Organic solvent or mixture, thermodynamic from solid, Propylene glycol (USP)-Merck, 23° C., read-out: Solubility
  solubility: 172 mg/mL
Organic solvent or mixture, thermodynamic from solid, Propylene glycol, 23° C., read-out: bendamustine HCl solubility
  solubility: ~170 mg/mL
Organic solvent or mixture, thermodynamic from solid, dimethyl acetamide, both temperatures tested, API completely dissolved, read-out: bendamustine HCl solubility
  solubility: > 180 mg/mL
Organic solvent or mixture, thermodynamic from solid, dimethyl sulfoxide, both temperatures tested, API completely dissolved, read-out: bendamustine HCl solubility
  solubility: > 180 mg/mL
